Assay results taken from US12157741B2, “Macrocyclic inhibitors of DYRK1A” (DANA-FARBER CANCER INSTITUTE, INC., priority 2018, dated 2024).
Like-named read-outs stand apart in the source and are kept apart here.

Assays:
Type in all cases: binding
various enzymes [1] = molecular target: various enzymes (Homo sapiens, UniProt O00444); conditions: compound 1 uM
Procedure: (§1) Ambit profiling was conducted in accordance with the manufacturer's instructions.

various enzymes [2] = molecular target: T1, various enzymes (Homo sapiens, UniProt O43283); conditions: compound 1 uM
T1 sequence (O43283 1-966): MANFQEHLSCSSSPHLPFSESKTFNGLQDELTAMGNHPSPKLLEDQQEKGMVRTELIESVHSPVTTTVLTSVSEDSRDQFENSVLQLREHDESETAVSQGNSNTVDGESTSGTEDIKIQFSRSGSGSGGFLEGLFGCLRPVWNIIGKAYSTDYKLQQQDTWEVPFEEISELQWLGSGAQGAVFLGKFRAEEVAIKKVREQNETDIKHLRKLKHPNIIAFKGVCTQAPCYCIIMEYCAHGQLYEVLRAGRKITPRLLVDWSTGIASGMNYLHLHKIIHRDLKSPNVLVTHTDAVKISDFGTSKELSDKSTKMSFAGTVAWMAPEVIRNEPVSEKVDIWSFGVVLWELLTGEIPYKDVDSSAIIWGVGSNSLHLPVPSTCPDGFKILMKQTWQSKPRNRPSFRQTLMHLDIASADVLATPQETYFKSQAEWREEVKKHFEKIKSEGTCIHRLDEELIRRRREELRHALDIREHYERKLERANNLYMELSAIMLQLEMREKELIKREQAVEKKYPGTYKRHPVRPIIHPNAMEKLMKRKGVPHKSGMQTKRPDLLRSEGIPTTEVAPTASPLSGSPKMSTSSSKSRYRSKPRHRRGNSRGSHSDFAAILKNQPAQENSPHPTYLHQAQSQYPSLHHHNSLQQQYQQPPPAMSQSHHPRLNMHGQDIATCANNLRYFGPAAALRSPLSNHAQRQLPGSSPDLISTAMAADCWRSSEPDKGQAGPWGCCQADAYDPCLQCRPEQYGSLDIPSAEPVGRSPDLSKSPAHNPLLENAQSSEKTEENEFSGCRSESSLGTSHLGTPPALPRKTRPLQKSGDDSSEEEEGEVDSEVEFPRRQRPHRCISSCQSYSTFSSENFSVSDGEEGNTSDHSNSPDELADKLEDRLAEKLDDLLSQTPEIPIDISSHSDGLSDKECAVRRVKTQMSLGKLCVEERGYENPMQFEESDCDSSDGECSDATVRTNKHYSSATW
Procedure: as §1

various enzymes [3] = molecular target: various enzymes (Homo sapiens, UniProt P00519, Y253F)
Procedure: as §1

various enzymes [4] = molecular target: various enzymes (Homo sapiens, UniProt P06213); conditions: compound 1 uM
Procedure: as §1

various enzymes [5] = molecular target: various enzymes (Homo sapiens, UniProt P06239); conditions: compound 1 uM
Sequence of various enzymes (Homo sapiens, UniProt P06239) (P06239 whole entry): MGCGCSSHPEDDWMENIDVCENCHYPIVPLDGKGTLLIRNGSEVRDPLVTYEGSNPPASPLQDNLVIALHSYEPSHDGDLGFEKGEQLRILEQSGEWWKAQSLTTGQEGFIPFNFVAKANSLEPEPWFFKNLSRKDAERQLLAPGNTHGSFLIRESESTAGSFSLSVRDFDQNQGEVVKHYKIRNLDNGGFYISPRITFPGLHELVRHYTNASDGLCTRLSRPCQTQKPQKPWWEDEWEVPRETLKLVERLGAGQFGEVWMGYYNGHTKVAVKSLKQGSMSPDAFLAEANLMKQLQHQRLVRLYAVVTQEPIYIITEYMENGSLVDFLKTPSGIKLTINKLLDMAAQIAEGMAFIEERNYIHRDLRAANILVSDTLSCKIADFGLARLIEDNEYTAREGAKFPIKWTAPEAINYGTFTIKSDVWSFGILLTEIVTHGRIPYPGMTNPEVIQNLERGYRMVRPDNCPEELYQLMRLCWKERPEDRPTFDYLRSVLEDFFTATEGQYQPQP
Procedure: as §1

various enzymes [6] = molecular target: various enzymes (Homo sapiens, UniProt P07947); conditions: compound 1 uM
Procedure: as §1

various enzymes [7] = molecular target: various enzymes (Homo sapiens, UniProt P07949); conditions: compound 1 uM
Sequence of various enzymes (Homo sapiens, UniProt P07949) (P07949 29-1114): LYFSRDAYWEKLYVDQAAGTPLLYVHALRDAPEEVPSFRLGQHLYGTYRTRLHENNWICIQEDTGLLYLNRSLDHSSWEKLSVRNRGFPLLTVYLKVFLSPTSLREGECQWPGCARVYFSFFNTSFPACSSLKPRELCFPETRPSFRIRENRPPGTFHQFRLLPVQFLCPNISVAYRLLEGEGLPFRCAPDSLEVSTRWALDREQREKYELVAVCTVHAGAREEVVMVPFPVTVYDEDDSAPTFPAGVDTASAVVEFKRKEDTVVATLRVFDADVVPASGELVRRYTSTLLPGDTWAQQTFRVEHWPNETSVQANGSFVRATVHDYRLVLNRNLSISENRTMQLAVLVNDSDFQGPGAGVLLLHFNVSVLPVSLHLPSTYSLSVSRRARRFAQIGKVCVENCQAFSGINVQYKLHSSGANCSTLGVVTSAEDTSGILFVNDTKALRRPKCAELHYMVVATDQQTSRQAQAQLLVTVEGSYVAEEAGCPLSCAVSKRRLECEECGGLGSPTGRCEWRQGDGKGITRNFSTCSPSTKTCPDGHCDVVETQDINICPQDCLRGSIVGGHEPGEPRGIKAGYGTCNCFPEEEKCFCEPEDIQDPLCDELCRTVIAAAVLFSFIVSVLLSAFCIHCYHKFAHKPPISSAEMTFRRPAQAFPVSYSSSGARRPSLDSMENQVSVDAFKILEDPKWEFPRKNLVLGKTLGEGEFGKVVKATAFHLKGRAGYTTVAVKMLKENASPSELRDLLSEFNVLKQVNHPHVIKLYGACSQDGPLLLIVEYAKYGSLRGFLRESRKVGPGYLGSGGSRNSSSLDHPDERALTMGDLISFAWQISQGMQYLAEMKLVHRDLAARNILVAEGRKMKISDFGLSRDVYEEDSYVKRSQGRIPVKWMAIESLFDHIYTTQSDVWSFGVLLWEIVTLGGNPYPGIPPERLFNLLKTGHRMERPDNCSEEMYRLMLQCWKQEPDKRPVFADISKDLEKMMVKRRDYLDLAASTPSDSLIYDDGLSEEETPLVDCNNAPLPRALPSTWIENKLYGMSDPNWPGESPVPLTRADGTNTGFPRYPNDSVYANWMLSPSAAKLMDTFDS
Procedure: as §1

various enzymes [8] = molecular target: various enzymes (Homo sapiens, UniProt P14616); conditions: compound 1 uM
Procedure: as §1

various enzymes [9] = molecular target: various enzymes (Homo sapiens, UniProt P25098); conditions: compound 1 uM
Procedure: as §1

various enzymes [10] = molecular target: various enzymes (Homo sapiens, UniProt P29317); conditions: compound 1 uM
Procedure: as §1

various enzymes [11] = molecular target: various enzymes (Homo sapiens, UniProt P32298); conditions: compound 1 uM
Procedure: as §1

various enzymes [12] = molecular target: various enzymes (Homo sapiens, UniProt P41240); conditions: compound 1 uM
Procedure: as §1

various enzymes [13] = molecular target: various enzymes (Homo sapiens, UniProt P49137); conditions: compound 1 uM
Procedure: as §1

various enzymes [14] = molecular target: various enzymes (Homo sapiens, UniProt P49760); conditions: compound 1 uM
Procedure: as §1

various enzymes [15] = molecular target: various enzymes (Homo sapiens, UniProt P53671); conditions: compound 1 uM
Sequence of various enzymes (Homo sapiens, UniProt P53671) (P53671 whole entry): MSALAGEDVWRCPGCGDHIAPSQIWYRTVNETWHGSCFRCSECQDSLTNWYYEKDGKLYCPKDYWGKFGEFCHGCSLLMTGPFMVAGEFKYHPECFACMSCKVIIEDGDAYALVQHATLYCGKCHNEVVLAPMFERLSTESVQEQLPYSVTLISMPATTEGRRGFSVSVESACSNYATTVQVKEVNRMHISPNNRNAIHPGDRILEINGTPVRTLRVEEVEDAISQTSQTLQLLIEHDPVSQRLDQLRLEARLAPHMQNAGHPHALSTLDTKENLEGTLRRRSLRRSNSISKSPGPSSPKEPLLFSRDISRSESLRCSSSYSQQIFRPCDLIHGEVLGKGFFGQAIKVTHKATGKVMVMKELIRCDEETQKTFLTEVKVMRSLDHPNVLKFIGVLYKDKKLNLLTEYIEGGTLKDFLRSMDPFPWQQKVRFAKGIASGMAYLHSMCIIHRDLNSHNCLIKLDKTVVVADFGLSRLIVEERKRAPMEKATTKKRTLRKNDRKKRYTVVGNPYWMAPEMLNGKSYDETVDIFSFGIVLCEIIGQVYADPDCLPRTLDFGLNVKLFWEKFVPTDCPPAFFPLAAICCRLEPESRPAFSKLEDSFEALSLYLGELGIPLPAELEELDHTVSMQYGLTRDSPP
Procedure: as §1

various enzymes [16] = molecular target: various enzymes (Homo sapiens, UniProt Q13470); conditions: compound 1 uM
Procedure: as §1

various enzymes [17] = molecular target: various enzymes (Homo sapiens, UniProt Q13976); conditions: compound 1 uM
Procedure: as §1

various enzymes [18] = molecular target: various enzymes (Homo sapiens, UniProt Q15831); conditions: compound 1 uM
Sequence of various enzymes (Homo sapiens, UniProt Q15831) (Q15831 whole entry): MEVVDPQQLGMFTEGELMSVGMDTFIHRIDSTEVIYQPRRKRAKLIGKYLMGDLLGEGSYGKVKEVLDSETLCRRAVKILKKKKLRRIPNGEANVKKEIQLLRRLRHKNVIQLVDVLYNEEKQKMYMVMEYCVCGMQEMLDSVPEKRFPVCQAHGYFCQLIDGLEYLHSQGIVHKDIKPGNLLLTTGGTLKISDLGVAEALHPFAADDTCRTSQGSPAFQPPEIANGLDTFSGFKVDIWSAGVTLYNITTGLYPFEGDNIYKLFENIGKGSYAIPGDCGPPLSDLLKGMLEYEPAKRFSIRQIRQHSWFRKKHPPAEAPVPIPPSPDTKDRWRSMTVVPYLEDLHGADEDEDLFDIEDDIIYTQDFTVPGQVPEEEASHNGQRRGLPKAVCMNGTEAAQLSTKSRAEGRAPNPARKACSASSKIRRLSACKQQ
Procedure: as §1

various enzymes [19] = molecular target: various enzymes (Homo sapiens, UniProt Q8N4C8); conditions: compound 1 uM
Sequence of various enzymes (Homo sapiens, UniProt Q8N4C8) (Q8N4C8 whole entry): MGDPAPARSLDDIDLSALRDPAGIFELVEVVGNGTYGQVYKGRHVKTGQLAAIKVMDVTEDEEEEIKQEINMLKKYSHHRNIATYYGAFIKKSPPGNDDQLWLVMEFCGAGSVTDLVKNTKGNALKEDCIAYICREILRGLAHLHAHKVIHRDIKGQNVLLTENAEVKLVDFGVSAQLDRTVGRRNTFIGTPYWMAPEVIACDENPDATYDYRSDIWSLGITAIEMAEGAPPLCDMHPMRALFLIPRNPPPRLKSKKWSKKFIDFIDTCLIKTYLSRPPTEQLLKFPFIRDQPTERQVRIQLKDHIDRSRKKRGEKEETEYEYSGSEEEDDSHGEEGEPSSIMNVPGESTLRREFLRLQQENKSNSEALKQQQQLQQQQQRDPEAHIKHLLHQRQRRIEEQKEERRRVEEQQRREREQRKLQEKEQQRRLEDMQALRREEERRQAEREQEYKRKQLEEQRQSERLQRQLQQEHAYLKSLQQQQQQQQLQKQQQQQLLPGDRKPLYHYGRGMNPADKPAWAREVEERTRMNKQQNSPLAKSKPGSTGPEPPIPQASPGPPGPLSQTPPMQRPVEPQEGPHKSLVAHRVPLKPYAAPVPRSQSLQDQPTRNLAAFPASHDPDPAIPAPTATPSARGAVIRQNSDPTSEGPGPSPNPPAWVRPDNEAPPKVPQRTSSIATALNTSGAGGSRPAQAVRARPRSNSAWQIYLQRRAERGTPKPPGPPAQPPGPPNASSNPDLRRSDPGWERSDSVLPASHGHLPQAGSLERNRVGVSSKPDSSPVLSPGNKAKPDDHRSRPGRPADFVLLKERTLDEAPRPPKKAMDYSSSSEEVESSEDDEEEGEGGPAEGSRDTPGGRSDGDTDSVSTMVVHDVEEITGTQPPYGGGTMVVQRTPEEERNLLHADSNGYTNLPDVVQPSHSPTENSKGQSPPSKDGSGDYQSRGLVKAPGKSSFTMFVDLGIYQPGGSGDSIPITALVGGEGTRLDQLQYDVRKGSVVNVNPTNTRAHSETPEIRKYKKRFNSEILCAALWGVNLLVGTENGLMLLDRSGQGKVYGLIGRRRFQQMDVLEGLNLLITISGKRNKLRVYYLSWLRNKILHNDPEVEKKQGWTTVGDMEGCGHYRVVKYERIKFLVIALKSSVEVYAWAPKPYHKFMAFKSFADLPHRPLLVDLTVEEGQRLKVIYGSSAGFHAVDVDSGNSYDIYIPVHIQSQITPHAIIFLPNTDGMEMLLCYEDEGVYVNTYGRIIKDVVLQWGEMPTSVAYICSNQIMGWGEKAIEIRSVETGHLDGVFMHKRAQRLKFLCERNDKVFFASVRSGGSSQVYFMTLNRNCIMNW
Procedure: as §1

various enzymes [20] = molecular target: various enzymes (Homo sapiens, UniProt Q96Q40); conditions: compound 1 uM
Procedure: as §1

various enzymes [21] = molecular target: various enzymes (Homo sapiens, UniProt Q96RR4); conditions: compound 1 uM
Procedure: as §1

various enzymes [22] = molecular target: T2, various enzymes (Homo sapiens, UniProt Q99640); conditions: compound 1 uM
T2 sequence (Q99640 1-499): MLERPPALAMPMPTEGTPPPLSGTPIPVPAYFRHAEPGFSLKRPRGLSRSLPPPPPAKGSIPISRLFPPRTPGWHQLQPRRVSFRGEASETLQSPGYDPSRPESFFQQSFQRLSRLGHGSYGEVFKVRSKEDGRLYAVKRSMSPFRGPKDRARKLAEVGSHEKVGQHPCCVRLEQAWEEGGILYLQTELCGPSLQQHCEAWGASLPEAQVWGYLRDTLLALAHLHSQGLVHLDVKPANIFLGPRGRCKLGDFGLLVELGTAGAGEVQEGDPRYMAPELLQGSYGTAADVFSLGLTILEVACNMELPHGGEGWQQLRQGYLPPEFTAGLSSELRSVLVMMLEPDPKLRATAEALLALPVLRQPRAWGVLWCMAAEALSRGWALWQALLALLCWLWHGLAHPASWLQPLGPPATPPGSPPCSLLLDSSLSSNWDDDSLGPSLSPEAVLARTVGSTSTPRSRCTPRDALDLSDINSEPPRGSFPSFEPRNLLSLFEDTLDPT
Procedure: as §1

various enzymes [23] = molecular target: various enzymes (Homo sapiens, UniProt Q9H422); conditions: compound 1 uM
Procedure: as §1

various enzymes [24] = molecular target: various enzymes (Homo sapiens, UniProt Q9NSY1); conditions: compound 1 uM
Procedure: as §1

various enzymes [25] = molecular target: various enzymes (Homo sapiens, UniProt Q9UM73, L1196M)
Procedure: as §1

Sequence of various enzymes (Homo sapiens, UniProt O00444) (O00444 whole entry): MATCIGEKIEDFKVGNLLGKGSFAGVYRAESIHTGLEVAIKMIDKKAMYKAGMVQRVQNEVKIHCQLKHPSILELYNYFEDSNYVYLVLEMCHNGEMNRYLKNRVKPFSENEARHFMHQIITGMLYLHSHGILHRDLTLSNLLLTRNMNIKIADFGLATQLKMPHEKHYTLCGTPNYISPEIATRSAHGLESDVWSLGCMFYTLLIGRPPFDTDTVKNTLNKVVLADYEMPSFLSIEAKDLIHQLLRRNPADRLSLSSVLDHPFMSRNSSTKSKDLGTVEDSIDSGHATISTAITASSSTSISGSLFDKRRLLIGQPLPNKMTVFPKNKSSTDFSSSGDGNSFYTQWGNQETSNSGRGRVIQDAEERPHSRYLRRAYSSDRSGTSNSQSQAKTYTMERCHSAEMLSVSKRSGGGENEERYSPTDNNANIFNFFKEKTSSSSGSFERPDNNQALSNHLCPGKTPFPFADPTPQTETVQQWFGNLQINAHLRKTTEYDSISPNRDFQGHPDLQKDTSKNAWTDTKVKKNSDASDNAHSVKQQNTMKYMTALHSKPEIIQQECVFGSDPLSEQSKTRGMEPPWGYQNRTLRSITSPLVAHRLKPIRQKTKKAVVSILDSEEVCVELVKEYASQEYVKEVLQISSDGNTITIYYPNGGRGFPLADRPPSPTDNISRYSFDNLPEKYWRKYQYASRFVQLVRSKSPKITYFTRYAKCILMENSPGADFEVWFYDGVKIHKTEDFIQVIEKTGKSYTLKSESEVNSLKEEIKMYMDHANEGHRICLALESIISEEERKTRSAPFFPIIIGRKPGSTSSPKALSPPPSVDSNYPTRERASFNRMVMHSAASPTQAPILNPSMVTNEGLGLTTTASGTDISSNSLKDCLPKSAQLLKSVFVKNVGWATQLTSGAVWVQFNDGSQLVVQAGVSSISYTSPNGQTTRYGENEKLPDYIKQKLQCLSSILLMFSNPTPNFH

Compound	Ambit profiling: PLK4 (various enzymes [1])	Ambit profiling: LZK (various enzymes [2])	Ambit profiling: INSR (various enzymes [4])	Ambit profiling: LCK (various enzymes [5])	Ambit profiling: YES (various enzymes [6])	Ambit profiling: RET (various enzymes [7])	Ambit profiling: INSRR (various enzymes [8])	Ambit profiling: GRK2 (various enzymes [9])	Ambit profiling: EPHA2 (various enzymes [10])	Ambit profiling: GRK4 (various enzymes [11])	Ambit profiling: CSK (various enzymes [12])	Ambit profiling: MAPKAPK2 (various enzymes [13])	Ambit profiling: CLK2 (various enzymes [14])	Ambit profiling: LIMK2 (various enzymes [15])	Ambit profiling: TNK1 (various enzymes [16])	Ambit profiling: PRKG1 (various enzymes [17])	Ambit profiling: LKB1 (various enzymes [18])	Ambit profiling: MINK (various enzymes [19])	Ambit profiling: PFTAIRE2 (various enzymes [20])	Ambit profiling: CAMKK2 (various enzymes [21])	other results
CC(C)N1Cc2nn(C)cc2-c2cnc3[nH]cc(c3c2)-c2cn(nc2C(F)(F)F)CCCC1=O [Compound 45, (Z)-5-isopropyl-31-methyl-13-(trifluoromethyl)-11H,21H,31H-5-aza-2(3,5)-pyrrolo[2,3-b]pyridina-1(4,1),3(4,3)-dipyrazolacyclononaphan-6-one]	29	42	43	0.65	56	0.15	51	100	48	14	3.9	100	4.3	100	12	100	100	1.8	39	5.8	Ambit profiling: ABL1(V253F)-phosphorylated (various enzymes [3]; compound 1 uM): 76; Ambit profiling: PKMYT1 (various enzymes [22]): 92; Ambit profiling: HIPK3 (various enzymes [23]): 15; Ambit profiling: BIKE (various enzymes [24]): 1.2; Ambit profiling: ALK(L1196M) (various enzymes [25]; compound 1 uM): 18
COc1c2c(nn1C)CN(C(C)C)C(=O)CCCn1cc(c(C(F)(F)F)n1)-c1c[nH]c3ncc-2cc13 [Compound 50, (Z)-5-isopropyl-35-methoxy-31-methyl-13-(trifluoromethyl)-11H,21H,31H-5-aza-2(3,5)-pyrrolo[2,3-b]pyridina-1(4,1),3(4,3)-dipyrazolacyclononaphan-6-one]	10	68	22	1.9	21	0.1	56	87	56	38	4.7	100	11	64	28	100	33	0	60	5.8	Ambit profiling: ABL1(Y253F)-phosphorylated (various enzymes [3]): 10; Ambit profiling: PKMYT1 (various enzymes [22]): 86; Ambit profiling: HIPK3 (various enzymes [23]): 26; Ambit profiling: BIKE (various enzymes [24]): 10; Ambit profiling: ALK(L1196M) (various enzymes [25]): 12
